Results reported in paper PMC10660311 (ACS Chemical Biology, 2023).

Experiments:
DTX3L/PARP9 complex = target: T1, DTX3L/PARP9 complex (Homo sapiens, UniProt Q8IXQ6+Q8TDB6); assay: FP binding of fluorescent AR peptides to DTX3L/PARP9 complex; settings: 50 nM peptide, RT 45 min, triplicate
T1 construct: made in house; host or cells: Sf21 insect cells
Description: Figure 2 Interaction of DTX3L/PARP9 and ADP-ribosylated AR peptides measured by FP assays. […] The reaction mixture was incubated at RT for 45 min, FP measured in a PHERAstar FSX Microplate Reader (BMG Labtech), and the binding curves were fitted for specific binding with GraphPad Prism v 9.3.1. The error bars represent the standard deviations.
Recombinant PARP9, DTX3L, and DTX3LΔN (N-terminal deletion mutant) were expressed in Sf21 insect cells and purified as previously described.[14] Complex formation of DTX3L/PARP9 or DTX3LΔN/PARP9 was carried out in an equal-molar ratio by incubating the proteins at >1 mg mL^–1 for each on ice for ∼4 h. Fluorescently labeled AR peptides (50 nM final concentration) 1–5 were mixed with various concentrations of the individual recombinant proteins or the protein complexes in a reaction buffer containing 20 mM Tris–HCl (pH 7.5), 50 mM NaCl, 0.1 mM EDTA, and 2 mM DTT, incubated at RT for 45 min and then measured in a PHERAstar FSX Microplate Reader (BMG Labtech). The assays were performed in triplicate. Competition assays were performed with 50 μM ADP-ribose. After correction for signals due to the fluorescent AR peptide alone, polarization values were plotted and analyzed with Prism (GraphPad) using nonlinear fit for specific binding with Hill slope.

[1] = target: dual ADP-ribosylated AR peptide 1, bis-ADP-ribosylated AR(280-294): CF-RPTPC(ADPr)APLAEC(ADPr)KGSL-OH; assay: fluorescence polarisation; 50 nM CF-labelled AR peptide; recombinant protein or preassembled complex titrated (2500 nM or 2000 nM highest, 2-fold serial dilution); 20 mM Tris-HCl pH 7.5, 50 mM NaCl, 0.1 mM EDTA, 2 mM DTT; RT, 45 min; triplicate; fit for specific binding with Hill slope

Substance | binding to DTX3L/PARP9 (in words) (DTX3L/PARP9 complex) | Kd [1] [nM]
CF-Arg-Pro-Thr-Pro-Cys(5-O-adenosine-diphosphate-α-D-ribosyl)-Ala-Pro-Leu-Ala-OH [Peptide 3, CF-labeled mono-ADPr AR peptide] | near-background level of binding | 
CF-RPTPCAPLAECKGSL-OH [Peptide 6] | did not bind significantly | 
CF-Pro-Leu-Ala-Glu-Cys(5-O-adenosine-diphosphate-α-D-ribosyl)-Lys-Gly-Ser-Leu-OH [Peptide 2, CF-labeled mono-ADPr AR peptide] | near-background level of binding | 
DTX3LΔN/PARP9 complex (from UniProt Q8TDB6 1-740; Q8IXQ6 1-854) |  | > 500
